From ChEMBL document CHEMBL5537115, “New broad-spectrum and potent antibacterial agents with dual-targeting mechanism: Promoting FtsZ polymerization and disrupting bacterial membranes” (Eur J Med Chem, 2024)
In brackets after ≈: the same amount, converted by molar mass. Activity calls are given as the source filed them. The calls are words filed in the database; no cut-off is given here.

Key:
Acinetobacter baumannii [1] = assay: Selectivity ratio of MBC for Acinetobacter baumannii ATCC19606 to MIC for Acinetobacter baumannii ATCC19606; assay type: functional
Acinetobacter baumannii [2] = assay: Antibacterial activity against Acinetobacter baumannii ATCC19606 incubated for 18 to 24 hrs; assay type: functional; conditions: time 18-24 hrs
Staphylococcus aureus [3] = assay: Selectivity ratio of MBC for Staphylococcus aureus clinical isolate to MIC for Staphylococcus aureus clinical isolate; assay type: functional
Staphylococcus aureus [4] = assay: Antibacterial activity against Staphylococcus aureus clinical isolate incubated for 18 to 24 hrs; assay type: functional; conditions: time 18-24 hrs
Staphylococcus aureus [5] = assay: Selectivity ratio of MBC for methicillin-resistant Staphylococcus aureus ATCC43300 to MIC for methicillin-resistant Staphylococcus aureus ATCC43300; assay type: functional
Bacillus subtilis [6] = assay: Selectivity ratio of MBC for penicillin-susceptible Bacillus subtilis ATCC9372 to MIC for penicillin-susceptible Bacillus subtilis ATCC9372; assay type: functional
Bacillus subtilis [7] = assay: Antibacterial activity against penicillin-susceptible Bacillus subtilis ATCC9372 incubated for 18 to 24 hrs; assay type: functional; conditions: time 18-24 hrs
Staphylococcus aureus [8] = assay: Antibacterial activity against methicillin-resistant Staphylococcus aureus ATCC43300 incubated for 18 to 20 hrs; assay type: functional; conditions: time 18-20 hrs
Staphylococcus aureus [9] = assay: Selectivity ratio of MBC for erythromycin-susceptible Staphylococcus aureus ATCC25923 to MIC for erythromycin-susceptible Staphylococcus aureus ATCC25923; assay type: functional
Staphylococcus aureus [10] = assay: Antibacterial activity against erythromycin-susceptible Staphylococcus aureus ATCC25923 incubated for 18 to 24 hrs; assay type: functional; conditions: time 18-24 hrs
Streptococcus pyogenes [11] = assay: Antibacterial activity against erythromycin-resistant Streptococcus pyogenes 2 clinical isolate assessed as bacterial growth inhibition incubated for 20 hrs by CLSI based broth microdilution method; assay type: functional
[12] = system: Staphylococcus epidermidis; assay: Antibacterial activity against penicillin-resistant Staphylococcus epidermidis clinical isolate assessed as bacterial growth inhibition incubated for 20 hrs by CLSI based broth microdilution method; assay type: functional
Staphylococcus aureus [13] = assay: Antibacterial activity against Staphylococcus aureus clinical isolate assessed as bacterial growth inhibition incubated for 20 hrs by CLSI based broth microdilution method; assay type: functional
Staphylococcus aureus [14] = assay: Antibacterial activity against penicillin-resistant Staphylococcus aureus ATCC31007 assessed as bacterial growth inhibition incubated for 20 hrs by CLSI based broth microdilution method; assay type: functional
Staphylococcus aureus [15] = assay: Antibacterial activity against methicillin-resistant Staphylococcus aureus ATCC43300 assessed as bacterial growth inhibition incubated for 20 hrs by CLSI based broth microdilution method; assay type: functional
Klebsiella pneumoniae = assay: Antibacterial activity against Klebsiella pneumoniae ATCC BAA-1902 assessed as bacterial growth inhibition incubated for 20 hrs by CLSI based broth microdilution method; assay type: functional
Acinetobacter baumannii [16] = assay: Antibacterial activity against Acinetobacter baumannii ATCC19606 assessed as bacterial growth inhibition incubated for 20 hrs by CLSI based broth microdilution method; assay type: functional
Escherichia coli [17] = assay: Antibacterial activity against wild-type Escherichia coli BW25113 assessed as bacterial growth inhibition incubated for 20 hrs by CLSI based broth microdilution method; assay type: functional
Escherichia coli [18] = assay: Antibacterial activity against penicillin-susceptible Escherichia coli ATCC25922 assessed as bacterial growth inhibition incubated for 20 hrs by CLSI based broth microdilution method; assay type: functional
Enterococcus faecium [19] = assay: Antibacterial activity against vancomycin-susceptible Enterococcus faecium ATCC19434 assessed as bacterial growth inhibition incubated for 20 hrs by CLSI based broth microdilution method; assay type: functional
Enterococcus faecalis [20] = assay: Antibacterial activity against vancomycin-susceptible Enterococcus faecalis ATCC29212 assessed as bacterial growth inhibition incubated for 20 hrs by CLSI based broth microdilution method; assay type: functional
Streptococcus pyogenes [21] = assay: Antibacterial activity against erythromycin-susceptible Streptococcus pyogenes 1 assessed as bacterial growth inhibition incubated for 20 hrs by CLSI based broth microdilution method; assay type: functional
Staphylococcus aureus [22] = assay: Antibacterial activity against erythromycin-susceptible Staphylococcus aureus ATCC25923 assessed as bacterial growth inhibition incubated for 20 hrs by CLSI based broth microdilution method; assay type: functional
Bacillus pumilus = assay: Antibacterial activity against penicillin-susceptible Bacillus pumilus CMCC63202 assessed as bacterial growth inhibition incubated for 20 hrs by CLSI based broth microdilution method; assay type: functional
Bacillus subtilis [23] = assay: Antibacterial activity against penicillin-susceptible Bacillus subtilis ATCC9372 assessed as bacterial growth inhibition incubated for 20 hrs by CLSI based broth microdilution method; assay type: functional
Enterococcus faecalis [24] = assay: Antibacterial activity against vancomycin-resistant Enterococcus faecalis ATCC51299 assessed as bacterial growth inhibition incubated for 20 hrs by CLSI based broth microdilution method; assay type: functional
Enterococcus faecium [25] = assay: Antibacterial activity against vancomycin-resistant Enterococcus faecium ATCC51559 assessed as bacterial growth inhibition incubated for 20 hrs by CLSI based broth microdilution method; assay type: functional
Staphylococcus aureus [26] = assay: Effect on proton gradient of cytoplasmic membrane in Staphylococcus aureus ATCC25923 at 1 ug/ml measured after 20 mins by diSC35 dye based analysis; assay type: functional, organism-based; conditions: Cytoplasm membrane, dose 1.0 µg/ml
Staphylococcus aureus [27] = assay: Disruption of inner membrane in Staphylococcus aureus ATCC25923 at 0.5 ug/ml measured after 12 mins by PI staining based analysis; assay type: functional, organism-based; conditions: dose 0.5 µg/ml
Escherichia coli [28] = assay: Disruption of outer membrane in Escherichia coli ATCC25922 at 16 ug/ml measured after 10 mins by NPN dye based analysis; assay type: functional, organism-based; conditions: dose 16.0 µg/ml
Staphylococcus aureus [29] = assay: Induction of resistance development in Staphylococcus aureus ATCC25923 assessed as fold increase in MIC at 0.5 times MIC measured after 32 days by multi-passage resistance assay relative to control; assay type: functional; conditions: time 32.0 day

| SMILES | MBC (Acinetobacter baumannii [2]) | MBC (Staphylococcus aureus [4]) | MBC (Bacillus subtilis [7]) | MIC (Streptococcus pyogenes [11]) | MIC [12] | MIC (Staphylococcus aureus [13]) | MIC (Staphylococcus aureus [14]) | MIC (Staphylococcus aureus [15]) | MIC (Klebsiella pneumoniae) | MIC (Acinetobacter baumannii [16]) | MIC (Escherichia coli [17]) | MIC (Escherichia coli [18]) | MIC (Enterococcus faecium [19]) | MIC (Enterococcus faecalis [20]) | MIC (Streptococcus pyogenes [21]) | MIC (Staphylococcus aureus [22]) | MIC (Bacillus pumilus) | MIC (Bacillus subtilis [23]) | MIC (Enterococcus faecalis [24]) | MIC (Enterococcus faecium [25]) | also measured |
| --- | --- | --- | --- | --- | --- | --- | --- | --- | --- | --- | --- | --- | --- | --- | --- | --- | --- | --- | --- | --- | --- |
| Cc1ccccc1-c1c[n+](C)c(-c2ccc(C(C)(C)C)cc2)cc1/C=C/c1ccc(N(C)C)cc1.[I-] | 2 µg/mL | 1 µg/mL | 2 µg/mL | 2 µg/mL | 1 µg/mL | 0.25 µg/mL | 1 µg/mL | 0.5 µg/mL | 16 µg/mL | 1 µg/mL | 2 µg/mL | 4 µg/mL | 1 µg/mL | 2 µg/mL | 2 µg/mL | 0.125 µg/mL | 0.5 µg/mL | 0.5 µg/mL | 2 µg/mL | 0.5 µg/mL | Ratio (Acinetobacter baumannii [1]): 2; Ratio (Staphylococcus aureus [3]): 4; Ratio (Staphylococcus aureus [5]): 1; Ratio (Bacillus subtilis [6]): 4; MBC (Staphylococcus aureus [8]): 0.5 µg/mL; Ratio (Staphylococcus aureus [9]): 2; MBC (Staphylococcus aureus [10]): 0.25 µg/mL |
| C[n+]1cc(-c2ccccc2)c(/C=C/c2ccc(C(C)(C)C)cc2)cc1-c1ccccc1.[I-] |  |  |  | 2 µg/mL | 2 µg/mL | 0.5 µg/mL | 4 µg/mL | 0.5 µg/mL | 32 µg/mL | 4 µg/mL | 8 µg/mL | 8 µg/mL | 4 µg/mL | 4 µg/mL | 2 µg/mL | 0.25 µg/mL | 2 µg/mL | 0.5 µg/mL | 4 µg/mL | 2 µg/mL | Activity (Staphylococcus aureus [26]): inactive; Activity (Staphylococcus aureus [27]): Active; Activity (Escherichia coli [28]): Active |
| C[n+]1cc(-c2ccccc2)c(/C=C/c2ccccc2)cc1-c1ccc(C(C)(C)C)cc1 |  |  |  |  |  |  |  |  |  |  |  |  |  |  |  |  |  |  |  |  | Activity (Staphylococcus aureus [26]): inactive; Activity (Staphylococcus aureus [27]): Active; Activity (Escherichia coli [28]): Active |
| C[n+]1cc2c3c(ccc2c2ccc4cc5c(cc4c21)OCO5)OCO3 | > 64 µg/mL | > 64 µg/mL | 64 µg/mL | 2 µg/mL | 8 µg/mL | 8 µg/mL | 16 µg/mL | 8 µg/mL | 64 µg/mL | 64 µg/mL | 64 µg/mL | 32 µg/mL | 64 µg/mL | 16 µg/mL | 2 µg/mL | 4 µg/mL | 4 µg/mL | 4 µg/mL | 32 µg/mL | 32 µg/mL | Ratio (Bacillus subtilis [6]): 16; MBC (Staphylococcus aureus [8]): > 64 µg/mL; Ratio (Staphylococcus aureus [9]): >32; MBC (Staphylococcus aureus [10]): > 64 µg/mL |
| CN(C)c1ccc(/C=C/c2cc(-c3ccc(C(C)(C)C)cc3)[n+](C)cc2-c2ccccc2)cc1.[I-] | 4 µg/mL | 1 µg/mL | 2 µg/mL | 2 µg/mL | 1 µg/mL | 0.125 µg/mL | 0.5 µg/mL | 0.25 µg/mL | 8 µg/mL | 1 µg/mL | 8 µg/mL | 4 µg/mL | 2 µg/mL | 2 µg/mL | 2 µg/mL | 0.125 µg/mL | 0.25 µg/mL | 0.125 µg/mL | 2 µg/mL | 2 µg/mL | Ratio (Acinetobacter baumannii [1]): 4; Ratio (Staphylococcus aureus [3]): 4; Ratio (Bacillus subtilis [6]): 16; MBC (Staphylococcus aureus [8]): 1 µg/mL; Ratio (Staphylococcus aureus [9]): 8; MBC (Staphylococcus aureus [10]): 1 µg/mL |
| CO[C@H]1/C=C/O[C@@]2(C)Oc3c(C)c(O)c4c(O)c(c(/C=N/N5CCN(C)CC5)c(O)c4c3C2=O)NC(=O)/C(C)=C\C=C\[C@H](C)[C@H](O)[C@@H](C)[C@@H](O)[C@@H](C)[C@H](OC(C)=O)[C@@H]1C |  |  |  |  |  |  |  |  |  |  |  |  |  |  |  |  |  |  |  |  | fold change (FC) (Staphylococcus aureus [29]): 8192 |
| CC(=O)NC[C@H]1CN(c2ccc(N3CCOCC3)c(F)c2)C(=O)O1 [LINEZOLID] | > 64 µg/mL | > 64 µg/mL | 64 µg/mL (≈ 190 µM) | 1 µg/mL (≈ 2.96 µM) | 4 µg/mL (≈ 11.9 µM) |  |  |  | > 64 µg/mL | > 64 µg/mL | > 64 µg/mL | > 64 µg/mL | 8 µg/mL (≈ 23.7 µM) |  | 1 µg/mL (≈ 2.96 µM) |  | 2 µg/mL (≈ 5.93 µM) | 0.5 µg/mL (≈ 1.48 µM) |  | 4 µg/mL (≈ 11.9 µM) | MBC (Staphylococcus aureus [8]): 8 µg/mL (≈ 23.7 µM); MBC (Staphylococcus aureus [10]): > 64 µg/mL |
| Cc1cc(-c2ccccc2)[n+](C)cc1-c1ccccc1 |  |  |  |  |  |  |  |  |  |  |  |  |  |  |  |  |  |  |  |  | Activity (Staphylococcus aureus [26]): inactive |
| C[n+]1ccc(/C=C/c2ccccc2)c(-c2ccccc2)c1 |  |  |  |  |  |  |  |  |  |  |  |  |  |  |  |  |  |  |  |  | Activity (Staphylococcus aureus [26]): inactive |
| CC(C)c1ccc(/C=C/c2cc(-c3ccccc3)c[n+](C)c2-c2ccccc2)cc1.[I-] |  |  |  | 2 µg/mL | 4 µg/mL | 0.5 µg/mL | 4 µg/mL | 2 µg/mL | 32 µg/mL | 8 µg/mL | 32 µg/mL | 16 µg/mL | 4 µg/mL | 4 µg/mL | 2 µg/mL | 0.5 µg/mL | 2 µg/mL | 1 µg/mL | 4 µg/mL | 4 µg/mL |  |
